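Cells were grown in 96-well plates and exposed to each compound for 48 hours at five concentrations; endpoints were interpolated linearly between bracketing concentrations, or set to the highest concentration if not reached. TGI is the concentration that stops growth completely.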

Some test systems named below: DLD-1 colon; DMS 114 small cell lung; SN12K1 renal; P388/ADR leukemia; P388 leukemia.
Assay in all cases: NCI tumour cell line growth inhibition, 48 h

As to `O=C(O)CCC(=O)OCN1C(=O)C2C3C=CC(C2C1=O)C1C2C(=O)N(COC(=O)CCC(=O)O)C(=O)C2C31` (configuration not stated), the TGI in the assay with DLD-1 colon is above 100 µM; in the assay on DMS 114 small cell lung it was above 67.9 µM.

For `COc1ccccc1OCC(COC(=O)Nc1ccccc1)OC(=O)Nc1ccccc1` (configuration not stated), the TGI in the assay on DLD-1 colon and with DMS 114 small cell lung was above 100 µM in each case.

`CC(C(=O)OCc1ccccc1)N(Cc1ccccc1)Cc1ccccc1` (configuration not stated): the TGI in the assay on DLD-1 colon and in the assay with DMS 114 small cell lung was above 100 µM throughout.

In turn, `O=C(NNC(=S)Nc1ccccc1)c1nsc2ccccc12` registered a TGI in the assay on DMS 114 small cell lung of 70 µM.

Take `O=C(CCN1CCOCC1)/C(=C/c1ccccc1)c1ccccc1`: the TGI was determined as 4.04 µM with DLD-1 colon; 10.9 µM with SN12K1 renal; 3.99 µM in the assay on P388/ADR leukemia; 12.4 µM in the assay with P388 leukemia; 12 µM with DMS 114 small cell lung.

For the origin of these results see PubChem BioAssay (NCI).
